Experimental data as given in patent US20240287164A1, “ANTIBODIES SPECIFIC TO NELL2 AND METHODS OF USE” (BOARD OF REGENTS, THE UNIVERSITY OF TEXAS SYSTEM, priority 2021, published 2024).
Entries after “also recorded” stand apart in the source; their conditions may differ. Where a SMILES comes first, the peptide text is derived from it. The star is where a group is joined. Cbz = O=C(OCc1ccccc1)*

How the values were obtained:
Rac. Ras, or Rab = details: Surviladze et al. 2010; cited from earlier work
A-673 and EW8 cells = experiment: Proliferation of NELL2- or Robo3-silenced Ewing sarcoma cells (IncuCyte); type: cell-based, human; details: 5 μM ML141; A-673 and EW8 cells; FIG. 3E
Description: Transfection and viral infection. Calcium phosphate co-precipitation was used for transfection of 293T cells. Lentiviruses were prepared by transfection in 293T cells following System Biosciences' protocol, and the cells infected with lentiviruses were selected with 2 μg/mL puromycin for 48 hours. The target sequences for shRNAs are as follows: FLI1 C-terminus shRNA, […] (SEQ ID NO: 20); luciferase shRNA, […] (SEQ ID NO: 21); NELL2 shRNA-1, […] (SEQ ID NO: 22); and NELL2 shRNA-2, […] (SEQ ID NO: 23). The following siRNAs were used: human NELL2 siRNA SMARTpool (M-012185-00); Dharmacon), human Robo3 siRNA SMARTpool (M-026504-00; Dharmacon), human Robo3 siRNAs NM_022370 (SASI_Hs01_00099511, SASI_Hs01_00099512, SASI_Hs01_00099513, SASI_Hs01_00099514, SASI_Hs01_00099515 and SASI_Hs01_00099516; MilliporeSigma), human cdc42 siRNA SMARTpool (M-005057-01; Dharmacon), human CD133 siRNA SMARTpool (M-010630-01; Dharmacon), human srGAP1 siRNA SMARTpool (M-026974-00; Dharmacon), srGAP2 siRNA SMARTpool (M-021531-03; Dharmacon), human caveolin-1 siRNA SMARTpool (M-003467-01; Dharmacon), human GDF6 siRNA SMARTpool (M-0330055-01; Dharmacon), and Non-Targeting siRNA Pool #2 (D-0012Jun. 14, 2005; Dharmacon), siRNA transfection of cell lines was performed using Lipofectamine™ RNAiMAX Transfection Reagent (Thermo Fisher).
Cell proliferation and xenograft tumorigenicity assays. Anchorage-dependent cell proliferation was assessed by IncuCyte live-cell imaging system (Essen BioScience). The IncuCyte system monitors cell proliferation by analyzing the occupied area (% confluence) of cell images over time. At least four fields from four wells were assayed for each experimental condition. The cell seeding density was 2000 cells per well in a 96-well plate. […] Anchorage-independent cell proliferation was evaluated by soft agar colony formation assays. […] Colonies were grown for three weeks and counted. Colonies (>50 cells) were scored by randomly counting 10 fields per dish. […] Tumor growth was monitored weekly using a caliper. […]

BAF complexes = experiment: BAF subunit protein levels by immunoblotting in Ewing sarcoma cells; type: cell-based, human
Description: Immunoblotting. […] The following antibodies were used: rabbit polyclonal anti-FLI1 (ab15289, Abcam); mouse monoclonal anti-FLAG M2 (F1804, MilliporeSigma): rabbit monoclonal anti-NELL2 (ab181376, Abcam); goat polyclonal anti-PGK1 (sc-17943, Santa Cruz Biotechnology); rabbit polyclonal anti-Robo3 (LS-C345713, LSBio); goat polyclonal anti-Robo3 (PA5-18714, Thermo Fisher Scientific); mouse monoclonal anti-cdc42 (ACD03, Cytoskeleton); rabbit polyclonal anti-Rac1/2/3 (2465, Cell Signaling Technologies); rabbit polyclonal anti-Rho A (2117, Cell Signaling Technologies); goat polyclonal anti-BRG1 (A303-877A, Bethyl Laboratories); rabbit monoclonal anti-BRG1 (49360, Cell Signaling Technologies); rabbit polyclonal anti-BRM (A301-014A-T, Bethyl Laboratories); mouse monoclonal anti-ARID1A/BAF250) (sc-32761, Santa Cruz Biotechnology); rabbit polyclonal anti-BAF170 (A301-039A-T, Bethyl Laboratories); rabbit monoclonal anti-BAF155 (11956, Cell Signaling Technologies); rabbit polyclonal anti-BAF60B (A301-596A-T, Bethyl Laboratories); rabbit polyclonal anti-BAF57 (A300-810A-T, Bethyl Laboratories); rabbit polyclonal anti-BAF53A (A301-391A-T, Bethyl Laboratories); rabbit monoclonal anti-BAF47 (8745, Cell Signaling Technologies); rabbit polyclonal anti-BRD9 (A303-781A-T, Bethyl Laboratories); rabbit monoclonal anti-SS18 (21792, Cell Signaling Technologies); rabbit monoclonal anti-CD133 (64326, Cell Signaling Technologies); rabbit polyclonal anti-srGAP1 (A301-286A-T, Bethyl Laboratories); rabbit polyclonal anti-srGAP2 (GTX130797, GeneTex); mouse monoclonal anti-tubulin (DMIA, Thermo Fisher Scientific); rabbit polyclonal anti-β-actin (4967, Cell Signaling Technologies); mouse monoclonal anti-Rpb1 (2629, Cell Signaling Technologies); rabbit monoclonal anti-cdc6 (3387, Cell Signaling Technologies); rabbit monoclonal anti-caveolin-1 (3267, Cell Signaling Technologies); rabbit polyclonal anti-phospho-caveolin-1 (3251, Cell Signaling Technologies); rabbit monoclonal anti-Src (2123, Cell Signaling Technologies); rabbit monoclonal anti-phospho-Src Family (6943, Cell Signaling Technologies); and rabbit polyclonal anti-GDF6 (NBP1-91934, Novus Biologicals). The following HRP-conjugated secondary antibodies were used: goat anti-rabbit (7074) and goat anti-mouse (7076) (Cell Signaling Technologies); donkey anti-goat (A50)-201P, Bethyl Laboratories).

CD133^low population [1] = experiment: Proliferation of sorted CD133low population (IncuCyte); type: cell-based, human; details: CD133^low population treated with ML141
Description: (§1) Cell proliferation and xenograft tumorigenicity assays. Anchorage-dependent cell proliferation was assessed by IncuCyte live-cell imaging system (Essen BioScience). The IncuCyte system monitors cell proliferation by analyzing the occupied area (% confluence) of cell images over time. At least four fields from four wells were assayed for each experimental condition. The cell seeding density was 2000 cells per well in a 96-well plate. For each assay, biological replicates were performed to confirm the reproducibility of results. Anchorage-independent cell proliferation was evaluated by soft agar colony formation assays. A-673 cells were infected with lentiviruses expressing shRNAs against NELL2 or scrambled shRNA and were selected with 2 μg/ml puromycin. Four days after infection, 4×10^3 cells were plated in soft agar. The soft agar cultures were composed of two layers; a base layer [4 ml in a 60-mm dish; DMEM/10% fetal bovine serum/0.6% noble agar (A5431, MilliporeSigma)/penicillin/streptomycin] and a cell layer (2 ml in a 60-mm dish; DMEM/10% fetal bovine serum/0.3% noble agar/penicillin/streptomycin). Colonies were grown for three weeks and counted. Colonies (>50 cells) were scored by randomly counting 10 fields per dish. Sphere formation assays were done (Dasgupta, A., et al. (2017) Oncotarget 8, 77292-77308) using ultra-low attachment 6-well plates (Corning: seeding density 1×10^4 cells/well) and DMEM/F-12 medium supplemented with B27, human recombinant epidermal growth factor (20 ng/ml), and basic fibroblast growth factor (20 ng/ml). For xenograft tumorigenicity assays, cells were subcutaneously injected into the flanks of SCID mice (2×10^6 cells/injection, five mice/group). Tumor growth was monitored weekly using a caliper. While it is not possible to predict the effect size, the sample size of five mice per group was chosen based on experience with xenograft experiments. Mice were randomly allocated to treatment groups. Blinding of the researcher measuring tumor size was employed.
Flow cytometry. […]

CD133^low population [2] = experiment: Chemotherapeutic drug treatment of CD133high and CD133low populations; type: cell-based, human; details: for CD133low population after prolonged treatment: FIG. 4M
Description: Flow cytometry. Cells were trypsinized, washed with FACS wash buffer (PBS, 0.5% BSA, 2 mM EDTA), and incubated with PE-conjugated human CD133/1 antibody (clone AC133, Miltenyi Biotec; 1:100 in FACS wash buffer) for 20 minutes at 4° C. Cells were washed three times with FACS wash buffer and the CD133^high and CD133^low cell populations were sorted by using BD FACSAria (Becton Dickinson). The FACSDiva 6.1.3 software (Becton Dickinson) was used for sample analysis.

Robo3 = target: T1, Robo3 (Homo sapiens, UniProt Q96MS0); experiment: NELL2-FLAG ligand-binding assay in A-673 cells; details: FIG. 2B
T1 construct: endogenous in cells; host or cells: A-673 Ewing sarcoma cells
T1 sequence (Q96MS0 21-1386): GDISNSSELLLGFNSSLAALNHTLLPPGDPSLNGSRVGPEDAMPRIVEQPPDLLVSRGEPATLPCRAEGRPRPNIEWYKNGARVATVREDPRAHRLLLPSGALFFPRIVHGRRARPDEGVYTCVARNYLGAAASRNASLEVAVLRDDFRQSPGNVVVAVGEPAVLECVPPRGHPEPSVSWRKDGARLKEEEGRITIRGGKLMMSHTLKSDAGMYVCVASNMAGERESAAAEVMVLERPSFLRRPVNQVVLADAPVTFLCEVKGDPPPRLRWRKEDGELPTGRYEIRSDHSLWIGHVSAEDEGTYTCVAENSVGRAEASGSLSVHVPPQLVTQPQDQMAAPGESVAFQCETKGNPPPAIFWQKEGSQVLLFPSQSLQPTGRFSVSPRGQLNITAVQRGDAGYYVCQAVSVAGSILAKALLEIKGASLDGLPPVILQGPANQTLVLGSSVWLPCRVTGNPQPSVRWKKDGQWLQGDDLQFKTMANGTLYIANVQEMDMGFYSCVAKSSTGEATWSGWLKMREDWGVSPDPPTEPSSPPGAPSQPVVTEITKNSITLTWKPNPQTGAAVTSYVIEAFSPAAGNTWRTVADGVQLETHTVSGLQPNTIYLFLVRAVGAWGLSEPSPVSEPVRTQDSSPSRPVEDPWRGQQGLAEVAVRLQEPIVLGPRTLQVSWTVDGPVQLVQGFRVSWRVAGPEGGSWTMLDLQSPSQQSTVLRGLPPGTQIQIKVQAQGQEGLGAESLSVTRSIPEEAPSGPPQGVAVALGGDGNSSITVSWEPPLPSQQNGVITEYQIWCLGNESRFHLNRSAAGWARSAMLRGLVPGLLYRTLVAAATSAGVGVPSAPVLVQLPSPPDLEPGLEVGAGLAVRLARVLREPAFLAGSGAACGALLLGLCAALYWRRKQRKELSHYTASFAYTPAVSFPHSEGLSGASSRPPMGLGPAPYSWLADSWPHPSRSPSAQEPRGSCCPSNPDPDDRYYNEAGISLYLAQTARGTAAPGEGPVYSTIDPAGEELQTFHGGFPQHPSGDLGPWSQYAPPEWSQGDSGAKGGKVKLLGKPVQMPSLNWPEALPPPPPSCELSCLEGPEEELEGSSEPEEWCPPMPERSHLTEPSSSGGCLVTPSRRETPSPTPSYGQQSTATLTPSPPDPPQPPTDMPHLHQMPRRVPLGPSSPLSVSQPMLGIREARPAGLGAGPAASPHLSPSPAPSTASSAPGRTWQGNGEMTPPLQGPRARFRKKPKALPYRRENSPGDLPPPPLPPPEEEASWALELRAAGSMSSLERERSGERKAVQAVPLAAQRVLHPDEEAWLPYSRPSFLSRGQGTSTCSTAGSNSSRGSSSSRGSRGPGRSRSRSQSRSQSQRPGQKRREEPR
Description: Robo3 expression was readily detectable in Ewing sarcoma tumors and cell lines, but undetectable in mesenchymal stem cells (FIG. 2A). The role of Robo3 as the NELL2 receptor in Ewing sarcoma was tested using ligand-binding assays (FIG. 2B). C-terminally FLAG-tagged NELL2 was produced from transfected 293T/HEK293T cells and was incubated with A-673 cells that were transfected with Robo3 siRNA pool or control siRNA pool. After washing the cells to remove unbound NELL2-FLAG, a whole cell lysate was prepared and analyzed by immunoblotting to assess the binding of NELL2-FLAG to A-673 cells. […] The specificity of the NELL2-Robo3 interaction was further confirmed by ligand-binding assays using alkaline phosphatase-fused NELL2 (NELL2-AP) (FIG. 2C). NELL2-AP bound to COS cells expressing Robo3, but not Robo1 or vector (FIG. 2C).

A673 Ewing sarcoma cells = experiment: Growth inhibition screen of anti-NELL2 hybridoma clones / mAbs on Ewing sarcoma cell proliferation; type: cell-based, human; details: mAbs used at 1 μg/ml, FIG. 6
Description: as §1, with “Sphere formation assays were done (Dasgupta, A., et al. (2017) Oncotarget 8, 77292-77308) using ultra-low attachment 6-well plates (Corning: seeding density 1×10^4 cells/well) and DMEM/F-12 medium supplemented with B27, human recombinant epidermal growth factor (20 ng/ml), and basic fibroblast growth factor (20 ng/ml). For xenograft tumorigenicity assays, cells were subcutaneously injected into the flanks of SCID mice (2×10^6 cells/injection, five mice/group).” left out, “While it is not possible to predict the effect size, the sample size of five mice per group was chosen based on experience with xenograft experiments. Mice were randomly allocated to treatment groups. Blinding of the researcher measuring tumor size was employed.” left out

[3] = target: T2, NELL2 EGF-like repeats (residue 397-637) (Homo sapiens (Human), UniProt Q99435 397-637); experiment: immunogen ELISA of hybridoma clones
T2 construct: also called EGF-like repeat domain of NELL2; immunogen
T2 sequence (Q99435 397-637 limits assumed): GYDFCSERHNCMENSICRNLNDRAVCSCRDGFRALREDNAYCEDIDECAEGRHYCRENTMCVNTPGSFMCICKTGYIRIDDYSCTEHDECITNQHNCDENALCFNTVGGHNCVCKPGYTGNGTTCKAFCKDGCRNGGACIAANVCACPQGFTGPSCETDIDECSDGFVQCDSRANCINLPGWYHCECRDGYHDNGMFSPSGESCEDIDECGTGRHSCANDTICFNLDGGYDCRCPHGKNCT

Molecule: ML141 [reference compound]
- Inhibition of Rac, Ras, or Rab (Rac. Ras, or Rab): does not inhibit
- Proliferation inhibition by NELL2 silencing or Robo3 silencing, effect of cdc42 inhibitor (A-673 and EW8 cells): abrogates the proliferation inhibition; also recorded: abolished
- BRG1, BAF155, and BAF47 protein levels in CD133low population (BAF complexes; CD133^low population treated with ML141): increased BRG1, BAF155, and BAF47 protein levels
- Reduction of BRG1, BAF250A, BAF155, and BAF47 by NELL2 silencing, effect of cdc42 inhibitor (BAF complexes; Ewing sarcoma cells, NELL2 silencing): abolished this response
- Cell proliferation of CD133low population (CD133^low population [1]): increased cell proliferation

Molecule: N.N.[Cl][Pt][Cl] [cisplatin]
- Resistance of CD133low versus CD133high population to the drug (CD133^low population [2]): more resistant
- CD133low population after prolonged treatment (CD133^low population [2]): enriched the CD133^low population

Molecule: NELL2-FLAG: C-terminally FLAG-tagged NELL2 produced from transfected 293T/HEK293T cells
- Binding to control siRNA transfected A-673 cells (Robo3): bound
- Binding to Robo3-silenced A-673 cells (Robo3; Robo3 siRNA pool): abolished

Molecule: CC(C)C[C@@H](C=O)NC(=O)[C@H](CC(C)C)NC(=O)[C@H](CC(C)C)NC(=O)OCc1ccccc1 [MG-132, reference compound] (Cbz-Leu-Leu-Leu-aldehyde)
- Protein levels of BRG1, BAF250A, BAF155, and BAF47 reduced by CN04, effect of proteasome inhibitor (BAF complexes; CN04 treatment plus MG-132): restored

Molecule: COc1cccc2c1C(=O)c1c(O)c3c(c(O)c1C2=O)C[C@@](O)(C(=O)CO)C[C@@H]3O[C@H]1C[C@H](N)[C@H](O)[C@H](C)O1 [doxorubicin]
- Resistance of CD133low versus CD133high population to the drug (CD133^low population [2]): more resistant
- CD133low population after prolonged treatment (CD133^low population [2]): enriched the CD133^low population

B1: anti-NELL2 mouse monoclonal antibody clone #17 (antibody, V domains shown)
VH: DVQLVESGGGLVQPGGSRKLSCAASGFTFSSFGMHWVRQAPEKGLEWVAYVSGGSSTIYYADTVKGRFTISRDNPKNTLFLQMTSLRSEDTAMYYCARSFSLLRLPVYFDFWGQGTTLTVSS
VL: DIQMTQSPSSLSASLGERVSLTCRASQEISDYLTWLQQKPDGTIKRLIYAASTLDSGVPKRFSGSRSGSDYSLTISSLESEDFADYYCLQYASFPLTFGAGTKLELK
notes: Mouse hybridoma mAb; also called NELL2 mAb
- Ewing sarcoma cell proliferation (A673 Ewing sarcoma cells): strongly inhibited
- binding result [3]: binds

B2: anti-NELL2 mouse monoclonal antibody clone #15 (antibody, V domains shown)
VH: EVKLVESGGGLVQPGGSLKLSCATSGFTFSDYYLYWVRQTPEKRLEWVAYISNGGDITYYPDTVKGRFAISRDNAKNTLYLQMSRLKSEDTAMYYCARGRVRSYYGNPDAMDFWGQGTSVTVSS
VL: DVVMTQTPLSLPVSLGDQASISCRSSQSLVHSNGNTYLHWYLQKPGQSPKLLIYKVSKRFSGVPDRFSGSGSGTDFTLKITRVEAEDLGVYFCSQSIYVPHTFGGGTKLEIK
notes: as for B1
- Ewing sarcoma cell proliferation (A673 Ewing sarcoma cells): strongly inhibited
- binding result [3]: binds
